Assay results taken from patent US12663425B2, “Delta-2-tubulin as a biomarker and therapeutic target for peripheral neuropathy” (THE TRUSTEES OF COLUMBIA UNIVERSITY IN THE CITY OF NEW YORK, priority 2017, dated 2026).

Tests used:
DRG neurons [1] = experiment: Mitochondrial motility in DRG neurons (mito-DsRed kymographs); assay type: cell-based; settings: 100 nM for 24 hr (FIG. 15D)
Method: FIG. 15A-15F. D2 accumulation is necessary and sufficient to affect mitochondria motility. (A) Representative kymographs of mitochondrial motility in DRG neurons (7 DIV) infected for 4 days with PVLX-EGFP-D2- or WT-Tubulin lentivirus prior to 72 hr infection with mito-DsRed lentivirus. (B) Quantification of the percentage of moving mitochondria as in A. Videos (10 s/frame for 30 min). (C, F) Percentage of different mitochondria movement states, Dynamic Pause (DP), Stationary (STA), Anterograde Running (AR), Retrograde Running (RR) (1 s/frame for 3 min, C), (10 s/frame for 30 min, F). (D) Representative kymographs of mitochondrial motility in DRG neurons (7 DIV) infected for 4 days with ShCCP1 or shControl lentivirus prior 72 hr infection with mito-DsRed lentivirus followed by Bortezomib treatment (100 nM for 24 hr). (E) Quantification of the percentage of moving mitochondria as in D. Videos (10 s/frame for 30 min). […]
To determine the effect bortezomib and delta-2 tubulin accumulation have on mitochondrial motility, DRG neurons were transduced with lentivirus to express wild-type tubulin or delta-2 tubulin. […] Expression of delta-2 tubulin affected every state of mitochondrial movement analyzed except for the stationary state (STA) (FIG. 15C). The effect of CCP1 knockdown on mitochondrial movement in the presence of bortezomib was also analyzed.

delta-2-tubulin [2] = experiment: Quantitative immunofluorescence of tubulin post-translational modifications in DRG and sural nerve of treated rats; assay type: in vivo, female Wistar rats
Method: FIG. 2. Immunofluorescence analysis of selected α-tubulin post-translational modifications in neuronal tissue from chronically treated rats. Relative tubulin post-translational modifications levels measured by quantitative immunofluorescence in randomly selected dorsal root ganglion cell bodies (DRG) and sural nerve (SN) from rats (4 per group) treated with chronic (0.2 mg/kg, 3× week for 8 weeks) doses of Bortezomib. Data are mean values±SEM. ****, p≤0.0001; ***, p≤0.001; **, p≤0.01; *, p≤0.05 by ANOVA (in red,) or unpaired, two-tailed t-test (in black).
FIG. 3A-3C. […] (A) Representative immunofluorescence staining of DRG isolated from rats acutely treated with Bortezomib. (B) Relative tubulin post-translational modifications levels measured by quantitative immunofluorescence in randomly selected DRG and SN from rats (4 per group) treated with acute (i.v. 0.2 mg/kg; 24 hr) doses of Bortezomib. Data are mean values±SEM, ****, p≤0.0001; ***, p≤0.001; **, p≤0.01; *, p≤0.05 by ANOVA (A in red,) or unpaired, two-tailed t-test (A in black). (C) Schematic of the enzymes involved in D2 generation.
FIG. 13A-13E. […] (A) Immunofluorescence staining of Peripherin (smaller unmyelinated C-fibers) or (B) NF200 (large myelinated A-β fibers)(C) TrkC (proprioceptive)(D) TrkA (nociceptive) in DRG L4-L5 dissected from rats treated with Bortezomib for 24 hr. (E) Correlation between peripherin, NF200, TrkC, TrkA and D2 intensity values in randomly selected DRG cell bodies was calculated by using Pearson coefficient (r). Scale bar, 50 μm.
To determine the effects of bortezomib on the post-translation modifications of tubulin, female Wistar rats were treated with single or multiple administrations pf bortezomib (5 rats for each treatment). Acute treatment included a single intravenous administration of bortezomib at a concentration of 0.2 mg/kg. Chronically treated rats were treated with bortezomib for a total of 8 weeks, with administration of bortezomib three times per week at a concentration of 0.2 mg/kg.
To determine the effect of bortezomib on tubulin expression, DRGs were analyzed for delta-2-tubulin expression. […] Further analysis of other unrelated chemotherapy-induced peripheral neuropathy (CIPN) drugs was performed to determine their effect on delta-2-tubulin expression levels. […] Additional experiments were performed to determine whether DRGs with different sensory modalities and diameters are preferentially affected by bortezomib treatment.

DRG neurons [3] = experiment: EGFP-EB3 analysis of microtubule dynamics in DRG neurons; assay type: cell-based; settings: DRG neurons 7 DIV, 100 nM, prior to delta-2-tubulin induction (FIG. 8)
Method: FIG. 8. Bortezomib induces MT stability without affecting MT dynamics prior to D2 induction. EGFP-EB3 time course analysis of MT dynamics parameters in DRG neurons (7 days in vitro (DIV)) treated with 100 nM Bortezomib for the indicated times. Data were pulled from up to 300 comets and 12-15 neurites for each group and analyzed by one-way ANOVA, multiple comparison. (NS, non-significant).
(§1) Microtubule dynamics were analyzed in DRG neurons following bortezomib treatment. […] TTL binds αβ-tubulin dimer and catalyzes the post-translational addition of a tyrosine to the C-terminal end of detyrosinated α-tubulin. Song et al., J. of Bio. Chem. 290(23):14765-14775 (2015).

[4] = Dynamic test, plantar test and electrophysiological tests in rats chronically treated with bortezomib; assay type: in vivo, female Wistar rats; settings: chronic: 0.2 mg/kg, three times per week, 8 weeks
Method: FIG. 1A-1D. Chronic doses of bortezomib affect animal behavior and nerve function. (A) Hind-paw withdrawal response to mechanical stimulus (10-50 g). (B) Plantar withdrawal latency response to heat source (infra-red light). Dynamic and plantar tests were performed before (baseline value), after 4-week and at the end point of treatment with Bortezomib. Data are expressed as mean values±SD, n animals=12. (C, D) Caudal and digital nerve conduction velocity (NCV) and amplitude measured in rats treated chronically with Bortezomib. n=8-10 per group; *p<0.05 compared to control.
To determine the effects of bortezomib on the post-translation modifications of tubulin, female Wistar rats were treated with single or multiple administrations pf bortezomib (5 rats for each treatment). Acute treatment included a single intravenous administration of bortezomib at a concentration of 0.2 mg/kg. Chronically treated rats were treated with bortezomib for a total of 8 weeks, with administration of bortezomib three times per week at a concentration of 0.2 mg/kg. […] Certain post-translation modifications of α-tubulin, e.g., acetylation, are reduced in dorsal root ganglions neurons (DRGs) and sural nerves (SNs) from rats chronically treated with bortezomib (FIG. 2) and in rats acutely treated with bortezomib (FIG. 3).

delta-2-tubulin [5] = experiment: Delta-2-tubulin in sural nerve biopsy of CIPN patients (immunofluorescence, immunoblot); assay type: in vivo; settings: CIPN patients (FIG. 5)
Description: FIG. 5A-5C. Bortezomib induces delta-2-tubulin in CIPN patients. (A) Representative immunofluorescence staining of SN isolated from a patient affected by CIPN. (B) Ratio analysis of D2/βIII-tubulin levels measured by immunofluorescence of fixed tissue from one SN biopsy. Data are mean values from 3 sections±SEM, ****, p<0.0001 by t-test (unpaired, two-tailed). (C) Immunoblot of D2 levels in whole cell lysates from one SN biopsy. Tyr, tyrosinated tubulin.
(§2) Peripheral neurons from patients suffering from CIPN were analyzed for delta-2-tubulin expression. […] In addition.

DRG neurons [6] = experiment: Axonal degeneration (degeneration index) in cultured DRG neurons; assay type: cell-based; settings: DRG neurons treated with 100 nM for the indicated times (FIG. 7C)
Method: (§3) FIG. 7A-7D. Bortezomib induces delta-2-tubulin at the onset of axonal degeneration. (A) Representative immunofluorescence of D2 and βIII-tub staining in DRG neurons treated with 100 nM of Bortezomib for the indicated times. Bar, 50 μm. (B) Ratio analysis of D2/βIII-tubulin levels measured by immunofluorescence of fixed cells treated as in A. **, p≤0.01, ****, p≤0.0001 by t-test (unpaired, two-tailed). […] Data are mean values±SEM from 3 experiments. (D) Number of retraction bulbs per field in DRG neurons treated with 100 nM of Bortezomib for the indicated times. **, p≤0.01.
FIG. 9A-9E. Delta-2-tubulin accumulation is sufficient to drive axonopathy. (A) Schematic of the enzymes involved in D2 generation. (B) Immunoblot of tubulin tyrosine ligase (TTL), D2 and tyrosinated (TYR) tubulin levels in adult DRG neurons (14 DIV) silenced of TTL expression at 7 DIV. (C) Representative immunofluorescence images of DRG neurons as in B. (D) Axonal degeneration and number of retraction bulbs per field in DRG neurons treated as in B. (E) Axonal degeneration in DRG neurons that overexpress D2-(PVLX-EGFP-D2Tub) or WT-tubulin (PVLX-EGFP-Tub). Data are mean values±SEM from 3 experiments. ***, p≤0.001; **, p≤0.01, *p≤0.05 by t-test (unpaired, two-tailed). Bar, […].
FIG. 14A-14D. […]
Peripheral neurons from patients suffering from CIPN were analyzed for delta-2-tubulin expression. […]

[7] = system: tubulin tyrosine ligase (TTL); experiment: Immunoblot of tubulin tyrosine ligase (TTL) and D2 levels in adult DRG neurons; assay type: cell-based; settings: adult DRG neurons 14 DIV, 100 nM (FIG. 11)
Method: FIG. 11. Immunoblot of tubulin tyrosine ligase (TTL) and D2 levels in adult DRG neurons (14 DIV) treated with 100 nM Bortezomib.
as §1

delta-2-tubulin [8] = experiment: Delta-2-tubulin levels in cultured neurons (western blot, immunofluorescence); assay type: cell-based; settings: for delta-2-tubulin expression: cultured hippocampal and DRG neurons (FIG. 6)
Method: FIG. 6. Bortezomib induces delta-2-tubulin in DRG neurons as shown by western blot analysis of delta-2-tubulin levels from whole cell lysates of adult DRG neurons treated with Bortezomib and immunofluorescence of delta-2-tubulin in cultured DRG neurons treated with Bortezomib.
as §3
FIG. 12. (A) Immunoblot of D2 levels from whole cell lysates of adult DRG neurons (14 DIV) treated with increasing doses of Bortezomib for the indicated times. (B) IB of D2 levels in the MT pellet (P) and soluble tubulin (S) fractions isolated from adult DRG neurons (8 DIV) treated with 100 nM of Bortezomib for the indicated times.
as §2

Row | axonopathy (DRG neurons [6]) | Compound | movement of mitochondria (DRG neurons [1]) | delta-2-tubulin in proprioceptive and nociceptive DRG neurons (delta-2-tubulin [2]; DRG L4-L5 of rats treated for 24 hr (FIG. 13)) | delta-2-tubulin in DRG cell bodies, compared to βIII-tubulin and control (delta-2-tubulin [2]; acute treatment, single i.v. 0.2 mg/kg, 24 hr (FIG. 3)) | delta-2-tubulin in DRG cell bodies, compared to βIII-tubulin and control (delta-2-tubulin [2]; chronic treatment, 0.2 mg/kg 3x week for 8 weeks (FIG. 2)) | post-translation modifications of α-tubulin, e.g., acetylation, in DRGs and SNs (delta-2-tubulin [2]; rats acutely treated, single i.v. 0.2 mg/kg, 24 hr (FIG. 3)) | post-translation modifications of α-tubulin, e.g., acetylation, in DRGs and SNs (delta-2-tubulin [2]; rats chronically treated, 0.2 mg/kg 3x week for 8 weeks (FIG. 2)) | microtubule dynamics (rescue/nucleation frequency, catastrophe frequency, comet density, growth rate) (DRG neurons [3]) | animal behavior and nerve function (dynamic test, plantar test, electrophysiological tests) [4] | delta-2-tubulin expression in peripheral neurons, e.g., sural nerve (delta-2-tubulin [5]) | TTL expression, western blot [7] | delta-2-tubulin, western blot [7] | delta-2-tubulin induction relative to axonal degeneration (degeneration index) (delta-2-tubulin [8]; DRG neurons, 100 nM, time course (FIG. 7)) | delta-2-tubulin expression (delta-2-tubulin [8]) | delta-2-tubulin in DRG neurons compared to control (delta-2-tubulin [2]; unrelated CIPN drugs, acute (FIG. 4))
1 | Time dependent increase of axonopathy | CC(C)C[C@H](NC(=O)[C@H](Cc1ccccc1)NC(=O)c1cnccn1)B(O)O [bortezomib] | greatly affected the movement of mitochondria | accumulate delta-2-tubulin | increased | increased | reduced | reduced | does not affect microtubule dynamics | affected animal behavior and nerve function | induced delta-2-tubulin expression | reduction of TTL expression | accumulation of delta-2-tubulin | induced delta-2-tubulin at the onset of axonal degeneration | increase in delta-2-tubulin expression | –
2 | – | CC(=O)O[C@H]1C(=O)[C@@]2(C)[C@H]([C@H](OC(=O)c3ccccc3)[C@]3(O)C[C@H](OC(=O)[C@H](O)[C@@H](NC(=O)c4ccccc4)c4ccccc4)C(C)=C1C3(C)C)[C@]1(OC(C)=O)CO[C@@H]1C[C@@H]2O [paclitaxel] | – | – | – | – | – | – | – | – | – | – | – | – | increase in delta-2-tubulin expression | acutely accumulated delta-2-tubulin
